These results are taken from patent US7998932B2, “Inhibition of angiogenesis by neutrophil alpha-defensins” (The Trustees of the University of Pennsylvania, priority 2003, dated 2011).

The assay deals with HUVEC. The assay is described as follows: HUVEC proliferation by BrdU incorporation. The assay is classed as cell-based, human. To be noted: over a period of 24 hours; 10 ng/ml VEGF or 1 μM sphingosine-1-phosphate. The method, then:
Cell proliferation: Endothelial cell proliferation was determined by measuring the incorporation of bromodeoxyuridine (BrdU). Endothelial cells were plated onto 96-well plates and incubated for 12 hours after which the medium was changed to MCDB-131 containing 0.05% FCS. Cells were then incubated for 24 hours in the absence or presence of stimuli or competitors. BrdU was added to the medium during the last 6 hours of incubation. The cells were then fixed and cell proliferation was quantified with a standardized calorimetric immunoassay (Roche Diagnostics, Mannheim, Germany) according to the manufacturer's instructions.
In general terms: Dividing cells build labelled thymidine or BrdU into new DNA.

For the molecule VEGF, the “increase of DNA synthesis in HUVEC” value is “approximately two-fold”. On to `CCCCCCCCCCCCC/C=C/[C@@H](O)[C@@H](N)COP(=O)(O)O` [sphingosine-1-phosphate], for which the “increase of DNA synthesis in HUVEC” value is recorded as “approximately two-fold”.
